Assay results taken from US20260028326A1, “COMPOUND BASED ON ISOINDOLINE-SUBSTITUTED GLUTARIMIDE BACKBONE AND USE THEREOF” (GLUETACS THERAPEUTICS (SHANGHAI) CO., LTD., priority 2022, published 2026).

Columns and labels:
GSPT1 protein = GSPT1 protein (Homo sapiens (Human), UniProt P15170+Q96SW2); experiment: Western-blot assay of substrate protein degradation in hPBMC, GSPT1; assay type: cell-based; conditions: for residual substrate protein level, GSPT1: hPBMC cells, compound 500 nM, 24 hours, Western blot
IKZF3 protein = IKZF3 protein (Homo sapiens (Human), UniProt Q96SW2+Q9UKT9); experiment: Western-blot assay of substrate protein degradation in hPBMC, IKZF3; assay type: cell-based; conditions: for residual substrate protein level, IKZF3: hPBMC cells, compound 500 nM, 24 hours, Western blot
Mino cells = experiment: Tumor cell proliferation IC50 (CCK-8), Mino; conditions: Homo sapiens, 72 h, read-out: IC50 for inhibiting the proliferation of tumor cells, Mino;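 further: cell viability assessed with CCK-8 reagent after compound exposure, IC50 derived from plotted growth inhibition curves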
IKZF1 protein = IKZF1 protein (Homo sapiens (Human), UniProt Q13422+Q96SW2); experiment: Western-blot assay of substrate protein degradation in hPBMC, IKZF1; assay type: cell-based; conditions: for residual substrate protein level, IKZF1: hPBMC cells, compound 500 nM, 24 hours, Western blot
[1] = target: human Cereblon WT GST-tagged protein (Homo sapiens (Human), UniProt Q96SW2); experiment: CRBN-binding affinity, HTRF (CEREBLON BINDING kit)
Procedure, shortened: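 GST-tagged human WT Cereblon incubated with compound, then Thalidomide-Re tracer and anti-GST Eu antibody added. Displacement read by HTRF, reported as CRBN binding inhibition rate against blank control wells without protein.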

[2] = hPBMC, 24 h, serially diluted 0.03-1000 nM

IKZF3 protein, sequence (Q9UKT9 whole entry): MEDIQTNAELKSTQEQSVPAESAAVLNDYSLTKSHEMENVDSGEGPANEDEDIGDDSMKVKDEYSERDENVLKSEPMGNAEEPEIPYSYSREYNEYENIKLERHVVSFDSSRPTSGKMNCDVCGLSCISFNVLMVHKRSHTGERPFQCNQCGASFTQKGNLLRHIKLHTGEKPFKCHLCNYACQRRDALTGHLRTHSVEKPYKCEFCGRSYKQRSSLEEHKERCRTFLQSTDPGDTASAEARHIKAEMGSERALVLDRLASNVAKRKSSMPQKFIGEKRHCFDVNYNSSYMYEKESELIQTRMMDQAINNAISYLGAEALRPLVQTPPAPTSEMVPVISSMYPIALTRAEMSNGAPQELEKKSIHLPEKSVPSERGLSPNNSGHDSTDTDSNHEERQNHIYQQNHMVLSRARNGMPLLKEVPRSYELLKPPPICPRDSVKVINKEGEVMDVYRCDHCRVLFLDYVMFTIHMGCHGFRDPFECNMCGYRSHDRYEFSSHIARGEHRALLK
IKZF3 protein, sequence (Q96SW2 whole entry): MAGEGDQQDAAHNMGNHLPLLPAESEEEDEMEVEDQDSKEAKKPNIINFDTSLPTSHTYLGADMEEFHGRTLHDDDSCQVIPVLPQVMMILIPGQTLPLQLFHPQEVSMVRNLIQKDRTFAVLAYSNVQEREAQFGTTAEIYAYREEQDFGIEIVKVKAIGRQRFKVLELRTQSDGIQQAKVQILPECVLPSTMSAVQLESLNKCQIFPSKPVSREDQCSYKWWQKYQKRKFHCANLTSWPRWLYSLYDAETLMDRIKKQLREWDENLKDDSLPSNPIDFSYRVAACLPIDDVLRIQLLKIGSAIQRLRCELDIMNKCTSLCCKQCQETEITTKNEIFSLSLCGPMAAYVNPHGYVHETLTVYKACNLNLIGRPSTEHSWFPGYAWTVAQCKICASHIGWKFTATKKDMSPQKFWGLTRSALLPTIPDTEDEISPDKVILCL
IKZF3 protein, sequence (Q16531 whole entry partner): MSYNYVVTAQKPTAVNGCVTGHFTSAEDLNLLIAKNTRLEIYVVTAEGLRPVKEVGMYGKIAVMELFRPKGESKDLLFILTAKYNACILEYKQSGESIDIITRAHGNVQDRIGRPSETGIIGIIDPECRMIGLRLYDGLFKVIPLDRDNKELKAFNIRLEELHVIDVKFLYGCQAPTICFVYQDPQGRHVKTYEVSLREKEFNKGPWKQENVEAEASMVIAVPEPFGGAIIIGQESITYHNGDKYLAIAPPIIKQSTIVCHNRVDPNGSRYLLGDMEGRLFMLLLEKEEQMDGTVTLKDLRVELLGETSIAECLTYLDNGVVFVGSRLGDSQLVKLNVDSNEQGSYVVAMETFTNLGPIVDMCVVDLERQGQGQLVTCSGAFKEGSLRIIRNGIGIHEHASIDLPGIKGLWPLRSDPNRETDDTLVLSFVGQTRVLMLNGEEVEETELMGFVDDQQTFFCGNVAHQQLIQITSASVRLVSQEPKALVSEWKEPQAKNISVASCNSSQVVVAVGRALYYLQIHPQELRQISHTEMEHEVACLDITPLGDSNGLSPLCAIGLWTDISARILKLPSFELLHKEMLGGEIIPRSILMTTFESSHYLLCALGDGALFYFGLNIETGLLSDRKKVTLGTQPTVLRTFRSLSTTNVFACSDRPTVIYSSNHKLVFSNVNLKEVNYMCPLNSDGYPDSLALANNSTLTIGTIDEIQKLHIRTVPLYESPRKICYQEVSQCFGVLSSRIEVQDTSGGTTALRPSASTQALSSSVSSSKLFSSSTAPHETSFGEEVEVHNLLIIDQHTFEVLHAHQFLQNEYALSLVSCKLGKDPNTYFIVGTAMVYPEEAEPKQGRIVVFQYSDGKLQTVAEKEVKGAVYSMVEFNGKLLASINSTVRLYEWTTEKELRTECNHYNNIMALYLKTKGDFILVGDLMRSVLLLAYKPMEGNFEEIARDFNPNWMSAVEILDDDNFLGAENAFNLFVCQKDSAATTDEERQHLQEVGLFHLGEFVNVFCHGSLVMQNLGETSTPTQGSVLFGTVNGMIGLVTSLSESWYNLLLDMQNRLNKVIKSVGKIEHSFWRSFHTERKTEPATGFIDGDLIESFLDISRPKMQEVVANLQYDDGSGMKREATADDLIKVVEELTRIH
GSPT1 protein, sequence (P15170 whole entry): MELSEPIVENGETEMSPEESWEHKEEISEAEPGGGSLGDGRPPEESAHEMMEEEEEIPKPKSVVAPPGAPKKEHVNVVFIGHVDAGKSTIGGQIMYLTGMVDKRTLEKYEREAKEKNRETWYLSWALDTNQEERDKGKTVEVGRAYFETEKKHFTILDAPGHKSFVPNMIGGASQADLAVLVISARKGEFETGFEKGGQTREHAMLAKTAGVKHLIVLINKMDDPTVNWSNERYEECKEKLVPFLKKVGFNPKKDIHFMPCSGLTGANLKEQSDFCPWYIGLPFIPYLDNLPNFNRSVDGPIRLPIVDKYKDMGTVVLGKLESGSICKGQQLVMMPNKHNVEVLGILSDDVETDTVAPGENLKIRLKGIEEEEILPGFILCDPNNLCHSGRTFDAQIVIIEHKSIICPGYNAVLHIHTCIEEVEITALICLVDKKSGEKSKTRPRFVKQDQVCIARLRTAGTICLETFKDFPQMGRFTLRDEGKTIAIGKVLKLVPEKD
GSPT1 protein, sequence (Q96SW2 whole entry): as the sequence (Q96SW2 whole entry) above
GSPT1 protein, sequence (Q16531 whole entry partner): as the sequence (Q16531 whole entry partner) above
IKZF1 protein, sequence (Q13422 whole entry): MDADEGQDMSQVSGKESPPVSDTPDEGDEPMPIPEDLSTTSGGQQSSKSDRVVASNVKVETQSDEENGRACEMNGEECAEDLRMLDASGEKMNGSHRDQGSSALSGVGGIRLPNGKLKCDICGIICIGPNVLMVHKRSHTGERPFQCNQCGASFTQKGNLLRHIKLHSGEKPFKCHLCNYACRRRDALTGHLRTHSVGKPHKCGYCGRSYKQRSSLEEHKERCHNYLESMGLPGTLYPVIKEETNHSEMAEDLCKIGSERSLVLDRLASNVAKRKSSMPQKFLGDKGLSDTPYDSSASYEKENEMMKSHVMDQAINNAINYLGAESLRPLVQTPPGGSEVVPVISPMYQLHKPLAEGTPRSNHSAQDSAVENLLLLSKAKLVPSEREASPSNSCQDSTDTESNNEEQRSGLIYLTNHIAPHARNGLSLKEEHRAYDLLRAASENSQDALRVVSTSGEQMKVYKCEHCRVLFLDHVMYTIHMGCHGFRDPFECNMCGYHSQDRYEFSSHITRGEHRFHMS
IKZF1 protein, sequence (Q96SW2 whole entry): as the sequence (Q96SW2 whole entry) above
IKZF1 protein, sequence (Q16531 whole entry partner): as the sequence (Q16531 whole entry partner) above
human Cereblon WT GST-tagged protein, sequence (Q96SW2 whole entry): as the sequence (Q96SW2 whole entry) above

IC50 (Mino cells) | concentration at which significant degradation effects on GSPT1 protein are exhibited (FIG. 1) (GSPT1 protein; [2]) | concentration at which significant degradation effects on IKZF3 protein are exhibited (FIG. 1) (IKZF3 protein; [2]) | IC50 [1] | concentration at which significant degradation effects on IKZF1 protein are exhibited (FIG. 1) (IKZF1 protein; [2]) | Compound | residual substrate protein level, GSPT1 (GSPT1 protein) | residual substrate protein level, IKZF3 (IKZF3 protein) | residual substrate protein level, IKZF1 (IKZF1 protein)
500 to 1000 nM |  |  |  |  | O=C1CCC(N2C(=O)c3ccc(CN4CCN(Cc5cnc(-c6ccccc6)cn5)CC4)cc3C2=O)C(=O)N1 (stereo not shown) [GT-05545, 2-(2,6-dioxopiperidin-3-yl)-5-((4-((5-phenylpyrazin-2-yl)methyl)piperazin-1-yl)methyl)isoindoline-1,3-dione] | B (B represents a residual substrate protein level of >50%) | A (A represents a residual substrate protein level of <50%) | B (B represents a residual substrate protein level of >50%)
10 to 50 nM | < 3 nM | < 3 nM | 1340 nM | < 3 nM | O=C1CCC(N2Cc3cc(CN4CCN(Cc5cccc(-c6ccc(Cl)cn6)c5)CC4)ccc3C2=O)C(=O)N1 (stereo not shown) [GT-05596, 3-(5-((4-(3-(5-chloropyridin-2-yl)benzyl)piperazin-1-yl)methyl)-1-oxoisoindolin-2-yl)piperidine-2,6-dione] | B (B represents a residual substrate protein level of >50%) | A (A represents a residual substrate protein level of <50%) | A (A represents a residual substrate protein level of <50%)
100 to 500 nM |  |  | 1400 nM |  | O=C1CCC(N2Cc3cc(CN4CCN(Cc5cccc(-c6cccs6)c5)CC4)ccc3C2=O)C(=O)N1 (stereo not shown) [GT-05597, 3-(1-oxo-5-((4-(3-(thiophen-2-yl)benzyl)piperazin-1-yl)methyl)isoindolin-2-yl)piperidine-2,6-dione] |  |  | 
100 to 500 nM |  |  | 260 nM |  | O=C1CCC(N2Cc3cc(CN4CCN(Cc5ccc(-c6cccs6)o5)CC4)ccc3C2=O)C(=O)N1 (stereo not shown) [GT-05627, 3-(1-oxo-5-((4-((5-(thiophen-2-yl)furan-2-yl)methyl)piperazin-1-yl)methyl)isoindolin-2-yl)piperidine-2,6-dione] |  |  | 
100 to 500 nM |  |  | 1280 nM |  | O=C1CCC(N2Cc3cc(CN4CCN(Cc5cccc(-c6ccc(Cl)cc6)c5)CC4)ccc3C2=O)C(=O)N1 (stereo not shown) [GT-05629, 3-(5-((4-((4′-chloro-[1,1′-biphenyl]-3-yl)methyl)piperazin-1-yl)methyl)-1-oxoisoindolin-2-yl)piperidine-2,6-dione] |  |  | 
500 to 1000 nM |  |  |  |  | O=C1CCC(N2C(=O)c3ccc(CN4CCN(Cc5ccc(-c6ccncc6)nc5)CC4)cc3C2=O)C(=O)N1 (stereo not shown) [GT-05634, 5-((4-([2,4′-bipyridin]-5-ylmethyl)piperazin-1-yl)methyl)-2-(2,6-dioxopiperidin-3-yl)isoindoline-1,3-dione] | B (B represents a residual substrate protein level of >50%) | A (A represents a residual substrate protein level of <50%) | A (A represents a residual substrate protein level of <50%)
 |  |  | 620 nM |  | CC1(C)CCC(CN2CC3(C2)CN(Cc2ccc4c(c2)CN(C2CCC(=O)NC2=O)C4=O)C3)=C(c2ccc(F)cc2)C1 (stereo not shown) [GT-05670, 3-(5-((6-((4′-fluoro-5,5-dimethyl-3,4,5,6-tetrahydro-[1,1′-biphenyl]-2-yl)methyl)-2,6-diazaspiro[3.3]heptan-2-yl)methyl)-1-oxoisoindolin-2-yl)piperidine-2,6-dione] | A (A represents a residual substrate protein level of <50%) | A (A represents a residual substrate protein level of <50%) | A (A represents a residual substrate protein level of <50%)
 |  |  | 980 nM |  | CC1(C)CCC(C(=O)N2CCCN(Cc3ccc4c(c3)CN(C3CCC(=O)NC3=O)C4=O)CC2)=C(c2ccc(Cl)cc2)C1 (stereo not shown) [GT-05680, 3-(5-((4-(4′-chloro-5,5-dimethyl-3,4,5,6-tetrahydro-[1,1′-biphenyl]-2-carbonyl)-1,4-diazepan-1-yl)methyl)-1-oxoisoindolin-2-yl)piperidine-2,6-dione] | B (B represents a residual substrate protein level of >50%) | A (A represents a residual substrate protein level of <50%) | B (B represents a residual substrate protein level of >50%)
100 to 500 nM |  |  | 1160 nM |  | CC1(C)CCC(CN2CC3(C2)CN(Cc2ccc4c(c2)CN(C2CCC(=O)NC2=O)C4=O)C3)=C(c2ccc(Cl)cc2)C1 (stereo not shown) [GT-05685, 3-(5-((6-((4′-chloro-5,5-dimethyl-3,4,5,6-tetrahydro-[1,1′-biphenyl]-2-yl)methyl)-2,6-diazaspiro[3.3]heptan-2-yl)methyl)-1-oxoisoindolin-2-yl)piperidine-2,6-dione] |  |  | 
100 to 500 nM |  |  | 470 nM |  | O=C1CCC(N2Cc3cc(CN4CCN(Cc5cccc(-c6ccco6)c5)CC4)ccc3C2=O)C(=O)N1 (stereo not shown) [GT-05692, 3-(5-((4-(3-(furan-2-yl)benzyl)piperazin-1-yl)methyl)-1-oxoisoindolin-2-yl)piperidine-2,6-dione] |  |  | 
100 to 500 nM |  |  | 250 nM |  | O=C1CCC(N2Cc3cc(CN4CCN(Cc5ccc(-c6ccco6)o5)CC4)ccc3C2=O)C(=O)N1 (stereo not shown) [GT-05695, 3-(5-((4-([2,2′-bifuran]-5-ylmethyl)piperazin-1-yl)methyl)-1-oxoisoindolin-2-yl)piperidine-2,6-dione] | B (B represents a residual substrate protein level of >50%) | A (A represents a residual substrate protein level of <50%) | A (A represents a residual substrate protein level of <50%)
 |  |  | 210 nM |  | O=C1CCC(N2Cc3cc(CN4CCN(Cc5cccc(-c6ccc[nH]6)c5)CC4)ccc3C2=O)C(=O)N1 (stereo not shown) [GT-05733, 3-(5-((4-(3-(1H-pyrrol-2-yl)benzyl)piperazin-1-yl)methyl)-1-oxoisoindolin-2-yl)piperidine-2,6-dione] | A (A represents a residual substrate protein level of <50%) | A (A represents a residual substrate protein level of <50%) | B (B represents a residual substrate protein level of >50%)
 |  |  | 200 nM |  | CC1(C)CCC(CN2CCN(Cc3ccc4c(c3)CN(C3CCC(=O)NC3=O)C4=O)C(C(F)(F)F)C2)=C(c2ccc(Cl)cc2)C1 (stereo not shown) [GT-05796, 3-(5-((4-((4′-chloro-5,5-dimethyl-3,4,5,6-tetrahydro-[1,1′-biphenyl]-2-yl)methyl)-2-(trifluoromethyl)piperazin-1-yl)methyl)-1-oxoisoindolin-2-yl)piperidine-2,6-dione] | A (A represents a residual substrate protein level of <50%) | B (B represents a residual substrate protein level of >50%) | B (B represents a residual substrate protein level of >50%)
 |  |  | 760 nM |  | CC1(C)CCC(C(=O)N2CCN(Cc3ccc4c(c3)CN(C3CCC(=O)NC3=O)C4=O)C(C(F)(F)F)C2)=C(c2ccc(Cl)cc2)C1 (stereo not shown) [GT-05845, 3-(5-((4-(4′-chloro-5,5-dimethyl-3,4,5,6-tetrahydro-[1,1′-biphenyl]-2-carbonyl)-2-(trifluoromethyl)piperazin-1-yl)methyl)-1-oxoisoindolin-2-yl)piperidine-2,6-dione] | B (B represents a residual substrate protein level of >50%) | A (A represents a residual substrate protein level of <50%) | B (B represents a residual substrate protein level of >50%)
 |  |  | 940 nM |  | CC1(C)CCC(CN2CCN(Cc3ccc4c(c3)CN(C3CCC(=O)NC3=O)C4=O)C(C(F)(F)F)C2)=C(c2ccc(F)cc2)C1 (stereo not shown) [GT-05846, 3-(5-((4-((4′-fluoro-5,5-dimethyl-3,4,5,6-tetrahydro-[1,1′-biphenyl]-2-yl)methyl)-2-(trifluoromethyl)piperazin-1-yl)methyl)-1-oxoisoindolin-2-yl)piperidine-2,6-dione] | A (A represents a residual substrate protein level of <50%) | B (B represents a residual substrate protein level of >50%) | B (B represents a residual substrate protein level of >50%)

Compound | IC50 (Mino cells) | concentration at which significant degradation effects on GSPT1 protein are exhibited (FIG. 1) (GSPT1 protein; [2]) | concentration at which significant degradation effects on IKZF3 protein are exhibited (FIG. 1) (IKZF3 protein; [2]) | IC50 [1] | concentration at which significant degradation effects on IKZF1 protein are exhibited (FIG. 1) (IKZF1 protein; [2]) | residual substrate protein level, GSPT1 (GSPT1 protein) | residual substrate protein level, IKZF3 (IKZF3 protein) | residual substrate protein level, IKZF1 (IKZF1 protein)
O=C1CCC(N2Cc3c(ccc(CN4C5CC4CN(Cc4ccccc4-c4ccc(Cl)cc4)C5)c3F)C2=O)C(=O)N1 (stereo not shown) [GT-05608, 3-(5-((3-((4′-chloro-[1,1′-biphenyl]-2-yl)methyl)-3,6-diazabicyclo[3.1.1]heptan-6-yl)methyl)-4-fluoro-1-oxoisoindolin-2-yl)piperidine-2,6-dione] | 500 to 1000 nM |  |  | 800 nM |  | A (A represents a residual substrate protein level of <50%) | A (A represents a residual substrate protein level of <50%) | B (B represents a residual substrate protein level of >50%)
O=C1CCC(N2Cc3cc(CN4C5CCC4CN(Cc4ccccc4-c4ccc(Cl)cc4)C5)ccc3C2=O)C(=O)N1 (stereo not shown) [GT-05710, 3-(5-((3-((4′-chloro-[1,1′-biphenyl]-2-yl)methyl)-3,8-diazabicyclo[3.2.1]octan-8-yl)methyl)-1-oxoisoindolin-2-yl)piperidine-2,6-dione] |  |  |  | 1100 nM |  | A (A represents a residual substrate protein level of <50%) | A (A represents a residual substrate protein level of <50%) | B (B represents a residual substrate protein level of >50%)
